# Test results from US11912569B2, “Method for manufacturing chlorous acid water using raw material obtained by salt electrolysis” (HONBUSANKEI CO., LTD., priority 2016, dated 2024).
# Read-outs that look alike come from different tables or passages of the source.
# What was measured:
# E. coli [1] = type: cell-based
# Description: The following samples were prepared to measure the oxidation capability: sodium hypochlorite converted concentration and phenol coefficient for each of the chlorine oxides.
# These samples were used to measure the oxidation capability: sodium hypochlorite converted concentration and phenol coefficient while appropriately dilution with ion exchange water.
# The following sample was prepared. The oxidation capability and phenol coefficient were measured immediately after manufacture and on day 5.
# They were compared based on dissolved chlorine dioxide as the control.
# E. coli [2] = assay: Phenol coefficient method; type: cell-based
# Description: The following is the operation method thereof.
# 5% phenol solution: Phenol is dissolved with hot water of about 70° C. 25 mL is measured out and precisely diluted to 500 mL with water (40° C.). The specific gravity at 20° C. is confirmed to be within the range of 1.000±0.005.
# Liquid medium (1 L volume): 18.0 g of normal broth medium is added to 1 L of water in a 1000 mL Erlenmeyer flask with a stopper. They are mixed and dissolved for about 30 minutes at normal temperature.
# Liquid medium (volume of 200 mL): about 18.0 g of normal broth medium is added to 1 L of water. They were mixed and dissolved for about 30 minutes at normal temperature.
# Liquid medium (test tube): about 18.0 g of normal broth medium is added to 1 L of water. […]
# The inoculated test tube is placed in a vortex mixer and sealed, and incubated for 24 hours at 37° C. Test segments observed to have opacity after incubation are recorded as “+” and test segments without opacity are recorded as “−”. However, a cotton swab is immersed in the liquid medium of the test segments evaluated as “+”, and the medium is smeared onto a desoxycholate medium (flat plate) from the center to the outside so as to draw a straight line. […]
# After culturing for a predetermined time, samples observed to have a typical red colony where the medium was smeared are evaluated as “+”, and samples with no observed red colony is evaluated as “−”. […]
Compound,Oxidation capability: sodium hypochlorite converted concentration at each phenol coefficient (E. coli [1]; phenol coefficient 0),Oxidation capability: sodium hypochlorite converted concentration at each phenol coefficient (E. coli [1]; phenol coefficient 1),Oxidation capability: sodium hypochlorite converted concentration at each phenol coefficient (E. coli [1]; phenol coefficient 2),Oxidation capability: sodium hypochlorite converted concentration at each phenol coefficient (E. coli [1]; phenol coefficient 3),Oxidation capability: sodium hypochlorite converted concentration at each phenol coefficient (E. coli [1]; phenol coefficient 5),Oxidation capability: sodium hypochlorite converted concentration at each phenol coefficient (E. coli [1]; phenol coefficient 10),Oxidation capability: sodium hypochlorite converted concentration at each phenol coefficient (E. coli [1]; phenol coefficient 15),Oxidation capability: sodium hypochlorite converted concentration at each phenol coefficient (E. coli [1]; phenol coefficient 25),"phenol coefficient (E. coli [2]; available chlorine concentration of 25% (w/v), saturation concentration)","phenol coefficient per oxidation capability (100) (E. coli [2]; phenol coefficient divided by oxidation capability and multiplied by 100, from the values of Example 1)"
[O][Cl+][O-] [Dissolved chlorine dioxide],0,139,279,418,697,1395,2092,3487,,
sodium chlorite,0,nonexistent,nonexistent,nonexistent,nonexistent,nonexistent,nonexistent,nonexistent,0,0
